From paper PMC6751206, “Epigenetic re-wiring of breast cancer by pharmacological targeting of C-terminal binding protein” (Cell Death & Disease, 2019)

Tests used:
[1] = biological target: T1, CtBP1/CtBP2 heterodimer (Homo sapiens, UniProt P56545+Q13363); experiment: acceptor photobleaching FRET of CtBP1/CtBP2 dimerization in MDA-MB-231 cells; type: cell-based; settings: 10 μM compound; live-cell heterodimerization read-out
T1 construct: CFP/YFP fusions of CtBP1 and CtBP2 (pSCFP3A, pSYFP2); heterodimer

[2] = biological target: T1, CtBP1/CtBP2 heterodimer; experiment: as above; type: cell-based; settings: live-cell heterodimerization read-out; dose-response

| IC50 [2] [µM] | Compound | FRET signal decrease at 10 μM [1] |
| --- | --- | --- |
| – | CC(C)C(NC(=O)C(=O)O)C(=O)O (stereo not drawn) [CI19] | significant decrease in the paired CtBP1-YFP/CtBP2-CFP FRET signal, after incubation with CI19, CI22, CI23 or CI24 |
| – | O=C(O)C(=O)Nc1ccccc1 [CI22] | significant decrease in the paired CtBP1-YFP/CtBP2-CFP FRET signal, after incubation with CI19, CI22, CI23 or CI24 |
| 10 to 20 | Nc1nc(C(=O)C(=O)O)cs1 [CI24] | – |
